Data taken from US20060287251A1, “Combination therapy for glycaemic control” (priority 2003, published 2006).

How the values were obtained:
plasma DPIV activity = molecular target: T1, plasma DPIV activity (Rattus norvegicus, UniProt P14740); assay: Plasma DPIV inhibiting activity after intravasal and oral administration to Wistar rats; assay type: in vivo; conditions: 100 mg/kg b.w. vs. placebo, oral and intra-vasal administration
T1 construct: from tissue; host or cells: plasma of male Wistar rats
Method: Male Wistar rats (Shoe: Wist(Sho)) with a body weight ranging between 250 and 350 g were purchased from Tierzucht Schönwalde (Schönwalde, Germany). Animals were single-caged under conventional conditions with controlled temperature (22±2° C.) on a 12/12 hours light/dark cycle (light on at 06:00 AM). Standard pelleted chow (ssniff® Soest, Germany) and tap water acidified with HCl were allowed ad libitum. After ≧one week of adaptation at the housing conditions, catheters were implanted into the carotid artery of Wistar rats under general anaesthesia (i.p. injection of 0.25 ml/kg b.w. Rompun®[2%], BayerVital, Germany and 0.5 ml/kg b.w. Ketamin 10, Atarost GmbH & Co., Twistringen, Germany). The animals were allowed to recover for one week. The catheters were flushed with heparin-saline (100 IU/ml) three times per week. In case of catheter dysfunction, a second catheter was inserted into the contra-lateral carotid artery of the respective rat. After one week of recovery from surgery, this animal was reintegrated into the study. In case of dysfunction of the second catheter, the animal was withdrawn from the study. […]
Statistical evaluations and graphics were performed with PRISM® 3.02 (GraphPad Software, Inc.). All parameters were analysed in a descriptive manner including mean and SD.

Plasma stability = assay type: in vitro ADME, human; conditions: 37 °C; for stability in human plasma: human plasma in vitro; for half-life of the inhibitory potency: human plasma, 5*10^−5, 2.5*10^−5, 1.25*10^−5 M
Method: In order to investigate the stability of glutaminyl pyrrolidine or glutaminyl thiazolidine in human plasma, the activity of DPIV in plasma was determined at a defined time. The average DPIV activity in human plasma was determined as 43.69 U/mL. In the working solution, the plasma was diluted in 0.9% NaCl to fix the DPIV activity level at 25 U/mL. Plasma and glutaminyl pyrrolidine or glutaminyl thiazolidine in different concentrations (5*10^−5, 2.5*10^−5, 1.25*10^−5 M in plasma) were incubated at 37° C. At defined time points samples were taken using a pipette roboter (Gilson 215, Liquid handler, Gilson) and transferred in a microtiter plate containing 5*10^−5 M glycylprolylaminomethylcoumarine in 0.9% NaCl+015% Brij per well. After 6 min the reaction was stopped by addition of isoleucylthiazolidine (5*10^−5 M in 0.9% NaCl solution). Fluorescence measurement was performed against 0.9% NaCl in plasma (reference standard) using a plate reader (HTS7000 plus, Applied Biosystems, Weiterstadt, Germany). The half-life of the inhibitory potency of glutaminyl pyrrolidine or glutaminyl thiazolidine was calculated by plotting the enzyme activity versus reaction time.

Zucker (fa/fa) rats = assay: Combination therapy of glutaminyl thiazolidine with other oral antidiabetics in Zucker (fa/fa) rats; assay type: in vivo, rat; conditions: after 14 days subchronic medication; versus Control; GT 60 mg/kg b.w. b.i.d. oral
Method: Standard pelleted chow (ssniff®, Soest, Germany) and tap water acidified with HCl were allowed ad libitum. At the age of 12 weeks the animals (N=42) were divided in random order into six experimental groups to be medicated.
During the two weeks of medication morning blood glucose was measured before the 08:00 AM medication at Monday, Wednesday and Friday.
A second OGTT was performed after two weeks of medication (Day 15).

[1] = system: diet-induced obese (DIO) rats; assay: Glycaemic control (OGTT) in diet-induced obese rats with impaired glucose tolerance; assay type: in vivo, rat; conditions: glutaminyl thiazolidine hydrochloride 60 mg/kg BID, Metformin 125 mg/kg BID
Method: Selectively bred male rats, 5-6 weeks of age, displaying enhanced likelihood of developing diet-induced obesity (DIO) are selected from the breeding colony. A total of 40 DIO animals are included in the study.
Upon entry to the experiment, rats are housed individually (1 rat/cage) in a 12/12 light-dark cyldle (light from 0600-1800 h) with controlled temperature conditions (22-24° C.). […] After one week of acclimatisation, 24 h food and water intake and body-weight is measured gravimetrically twice weekly (in the morning between 8-10 am). After 3 weeks of HF feeding, average daily food consumption is calculated for all rats. The average food intake comprises a platform from which a scheduled feeding regime is implemented. […]
This test is carried out at 8:00 AM on days 6 and 42. […] Blood samples are taken from an indwelling arterial catheter and P-glucose is measured on automated analyser (Roche Diagnostics) at time points −60, −30, 0, 15, 30, 60, 120, and 180 min after oral administration of 1 g/kg glucose (using 1 g/ml dH2O). […] P-insulin is measured at time points: 0, 15, 30, 60, 120 using an ultra-sensitive ELISA (Shibayagi,Japan).
All rats are equipped with intra-arterial catheters at day −7. […] All blood samples are taken in EDTA Vacutainer tubes and plasma glucose is measured together with total Cholesterol and triacylglycerol. […]

T1 sequence (P14740 38-767 limits assumed): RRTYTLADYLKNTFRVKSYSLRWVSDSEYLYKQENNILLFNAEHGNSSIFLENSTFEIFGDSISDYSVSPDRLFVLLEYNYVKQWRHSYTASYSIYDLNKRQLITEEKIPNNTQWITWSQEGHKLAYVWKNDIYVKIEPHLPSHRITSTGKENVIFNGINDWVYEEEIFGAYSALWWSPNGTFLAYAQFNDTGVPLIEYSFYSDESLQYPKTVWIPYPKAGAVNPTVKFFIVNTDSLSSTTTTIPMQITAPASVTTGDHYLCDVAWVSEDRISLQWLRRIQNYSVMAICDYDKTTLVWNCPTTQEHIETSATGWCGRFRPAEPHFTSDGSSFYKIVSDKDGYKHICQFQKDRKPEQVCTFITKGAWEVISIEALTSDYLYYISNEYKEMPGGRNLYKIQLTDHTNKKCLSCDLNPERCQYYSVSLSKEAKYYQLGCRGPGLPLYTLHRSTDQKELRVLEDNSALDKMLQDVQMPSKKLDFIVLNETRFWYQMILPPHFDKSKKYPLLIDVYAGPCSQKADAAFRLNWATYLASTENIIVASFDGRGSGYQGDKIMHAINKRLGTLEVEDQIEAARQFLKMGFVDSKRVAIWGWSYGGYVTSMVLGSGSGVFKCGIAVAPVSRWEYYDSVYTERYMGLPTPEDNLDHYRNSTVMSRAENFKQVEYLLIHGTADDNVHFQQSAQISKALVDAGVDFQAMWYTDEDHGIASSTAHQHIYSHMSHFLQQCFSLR

| Structure (SMILES) | plasma DPIV activity (plasma DPIV activity) | stability in human plasma (Plasma stability) | half-life of the inhibitory potency (Plasma stability) | glucose tolerance, OGTT-2 (Zucker (fa/fa) rats) | oral glucose tolerance [1] |
| --- | --- | --- | --- | --- | --- |
| NC(=O)CC[C@H](N)C(=O)N1CCCC1 [glutaminyl pyrrolidine] | inhibited plasma DPIV activity | stable in human plasma over 22 hours | no half-time could be determined | – | – |
| NC(=O)CC[C@H](N)C(=O)N1CCSC1 [glutaminyl thiazolidine] | inhibited plasma DPIV activity | stable in human plasma over 22 hours | no half-time could be determined | improved glucose tolerance | improved oral glucose tolerance |
